Results published in patent publication US20240109915A1, “NOVEL ACC INHIBITORS” (Pfizer Inc., priority 2022, published 2024).

Target: recombinant human ACC1 (rhACC1) (Homo sapiens (Human), UniProt Q13085)
Assay: Transcreener ADP detection FP assay, direct inhibition of rhACC1
Format: biochemical
Conditions: Geomean IC50, n ≥ 2 unless * then n = 1; 50 μM ATP, 30 μM acetyl-CoA
Method: The direct inhibition of ACC1 for the compounds of the present invention was determined using preparations of recombinant human ACC1 (rhACC1) (SEQ ID NO. 1)
Two liters of SF9 cells, infected with recombinant baculovirus containing full length human ACC1 cDNA, were suspended in ice-cold lysis buffer (25 mM Tris, pH 7.5; 150 mM NaCl; 10% glycerol; 5 mM imidazole (EMD Bioscience; Gibbstown, NJ); 2 mM TCEP (BioVectra; Charlottetown, Canada); Benzonase nuclease (10000 U/100 g cell paste; Novagen; Madison, WI); EDTA-free protease inhibitor cocktail (1 tab/50 ml; Roche Diagnostics; Mannheim, Germany). Cells were lysed by 3 cycles of freeze-thaw and centrifuged at 40,000×g for 40 minutes (4° C.). Supernatant was directly loaded onto a HisTrap FF crude column (GE Healthcare; Piscataway, NJ) and eluted with an imidazole gradient up to 0.5 M over 20 column volumes (CV). ACC1-containing fractions were pooled and diluted 1:5 with 25 mM Tris, pH 7.5, 2 mM TCEP, 10% glycerol and direct loaded onto a CaptoQ (GE Healthcare) column and eluted with an NaCl gradient up to 1 M over 20 CV's. Phosphate groups were removed from purified ACC1 by incubation with lambda phosphatase (100 U/10 μM target protein; New England Biolabs; Beverly, MA) for 14 hours at 4° C.; okadaic acid was added (1 μM final concentration; Roche Diagnostics) to inhibit the phosphatase. Purified ACC1 was exchanged into 25 mM Tris, pH 7.5, 2 mM TCEP, 10% glycerol, 0.5 M NaCl by 6 hour dialysis at 4° C. Aliquots were prepared and frozen at −80° C.
Measurement of rhACC1 Inhibition rhACC1 was assayed in a Corning #3820 (Corning, Tewksbury, MA) 384-well plate using the Transcreener ADP detection FP assay kit (Bellbrook Labs, Madison, Wisconsin) using the manufacturer's recommended conditions for a 50 μM ATP reaction. The final conditions for the assay were 50 mM HEPES, pH 7.2, 10 mM MgCl2, 7.5 mM tripotassium citrate, 2 mM DTT, 0.1 mg/mL BSA, 30 μM acetyl-CoA, 50 μM ATP, and 10 mM KHCO3. Typically, a […] was run for 60 min at room temp, and 10 μl of Transcreener stop and detect buffer was added and the combination incubated at room temp for an overnight (18 hours). The data was acquired on an Envision Fluorescence reader (PerkinElmer) using a 620 excitation Cy5 FP general dual mirror, 620 excitation Cy5 FP filter, 688 emission (S) and a 688 (P) emission filter.

| IC50 | SMILES |
| --- | --- |
| 6.4 nM | CCNc1ccc2c(C)cc(C(=O)N3CCC4(CC3)CC(=O)c3nc(C(C)(C)C)sc3C4)cc2n1 [Example 39, 2-(tert-butyl)-1′-(2-(ethylamino)-5-methylquinoline-7-carbonyl)-5H-spiro[benzo[d]thiazole-6,4′-piperidin]-4(7H)-one] |
| 27.3 nM | COc1cccc2cc(C(=O)N3CCC4(CC3)CC(=O)c3nc(C(C)(C)C)sc3C4)[nH]c12 [Example 60] |
| 45.5 nM | CCc1nc2c(s1)CC1(CCN(C(=O)c3cc(C)c4[nH]nc(C)c4c3)CC1)CC2=O [Example 6, 1′-(3,7-dimethyl-1H-indazole-5-carbonyl)-2-ethyl-5H-spiro[benzo[d]thiazole-6,4′-piperidin]-4(7H)-one] |
| 7.9 nM | Cc1n[nH]c2c(C)cc(C(=O)N3CCC4(CC3)CC(=O)c3nc(C(C)(C)C(C)C)sc3C4)cc12 [Example 3, 1′-(3,7-dimethyl-1H-indazole-5-carbonyl)-2-(2,3-dimethylbutan-2-yl)-5H-spiro[benzo[d]thiazole-6,4′-piperidin]-4(7H)-one] |
| 23.2 nM | COc1c(C)cc(C(=O)N2CCC3(CC2)CC(=O)c2nc(C(C)(C)C)sc2C3)c2[nH]ncc12 [Example 36, 2-(tert-butyl)-1′-(4-methoxy-5-methyl-1H-indazole-7-carbonyl)-5H-spiro[benzo[d]thiazole-6,4′-piperidin]-4(7H)-one] |
| 19.7 nM | CC(C)(C)c1nc2c(s1)CC1(CCN(C(=O)c3cc(O)c4ccccc4c3)CC1)CC2=O [Example 57] |
| 13.4 nM | CNc1ccc2c(C)cc(C(=O)N3CCC4(CC3)CC(=O)c3nc(C5(C)CC5)sc3C4)cc2n1 [Example 9, 1′-(5-methyl-2-(methylamino)quinoline-7-carbonyl)-2-(1-methylcyclopropyl)-5H-spiro[benzo[d]thiazole-6,4′-piperidin]-4(7H)-one] |
| 18.1 nM | CNc1cc2ccccc2cc1C(=O)N1CCC2(CC1)CC(=O)c1nc(C(C)(C)C)sc1C2 [Example 53] |
| 5.5 nM | CNc1ccc2c(C)cc(C(=O)N3CCC4(CC3)CC(=O)c3nc(C(C)C)sc3C4)cc2n1 [Example 8, 2-isopropyl-1′-(5-methyl-2-(methylamino)quinoline-7-carbonyl)-5H-spiro[benzo[d]thiazole-6,4′-piperidin]-4(7H)-one] |
| 11.1 nM | CCc1nccc2c(OC)cc(C(=O)N3CCC4(CC3)CC(=O)c3nc(C(C)(C)C)sc3C4)cc12 [Example 29, 2-(tert-butyl)-1′-(1-ethyl-5-methoxyisoquinoline-7-carbonyl)-5H-spiro[benzo[d]thiazole-6,4′-piperidin]-4(7H)-one] |
| 3.5 nM | CCNc1ccc2ccc(C(=O)N3CCC4(CC3)CC(=O)c3nc(C(C)(C)C)sc3C4)cc2n1 [Example 32, 2-(tert-butyl)-1′-(2-(ethylamino)quinoline-7-carbonyl)-5H-spiro[benzo[d]thiazole-6,4′-piperidin]-4(7H)-one] |
| 9.6 nM | CC(C)(C)c1nc2c(s1)CC1(CCN(C(=O)c3cc(Cl)cc4cc[nH]c34)CC1)CC2=O [Example 90] |
| 7.6 nM | Cc1n[nH]c2c(C)cc(C(=O)N3CCC4(CC3)CC(=O)c3nc(C(C)(C)C)sc3C4)cc12 [Example 45] |
| 46.5 nM | COc1cc(C(=O)N2CCC3(CC2)CC(=O)c2nc(C(C)(C)C)sc2C3)cc2c(C)ccnc12 [Example 95] |
| 3.1 nM | CNc1nccc2c(C)cc(C(=O)N3CCC4(CC3)CC(=O)c3nc(C(C)(C)C)sc3C4)cc12 [Example 24, 2-(tert-butyl)-1′-(5-methyl-1-(methylamino)isoquinoline-7-carbonyl)-5H-spiro[benzo[d]thiazole-6,4′-piperidin]-4(7H)-one] |
| 4.5 nM | COc1cc(C(=O)N2CCC3(CC2)CC(=O)c2nc(C4(C)CC4)sc2C3)cc2c(C)nn(C)c12 [Example 11, 1′-(7-methoxy-1,3-dimethyl-1H-indazole-5-carbonyl)-2-(1-methylcyclopropyl)-5H-spiro[benzo[d]thiazole-6,4′-piperidin]-4(7H)-one] |
| 65.4 nM | Cc1cc(C(=O)N2CCC3(CC2)CC(=O)c2nc(C(C)(C)C)sc2C3)cc2ccn(C)c12 [Example 76] |
| 19.5 nM | Cc1cc(C(=O)N2CCC3(CC2)CC(=O)c2nc(C(C)(C)C)sc2C3)cc2c1NCCC2 [Example 93] |
| 6.1 nM | Cc1cc(C(=O)N2CCC3(CC2)CC(=O)c2nc(C(C)(C)C)sc2C3)cc2c1ccn2C [Example 82] |

| IC50 | SMILES |
| --- | --- |
| 5.2 nM | COc1cc(C(=O)N2CCC3(CC2)CC(=O)c2nc(C(C)(C)C)sc2C3)cc2c(OC)cncc12 [Example 43, 2-(tert-butyl)-1′-(4,8-dimethoxyisoquinoline-6-carbonyl)-5H-spiro[benzo[d]thiazole-6,4′-piperidin]-4(7H)-one] |
| 7.2 nM | COc1cc(C(=O)N2CCC3(CC2)CC(=O)c2nc(C(C)(C)C)sc2C3)cc(-c2ccc(C(N)=O)cc2)n1 [Example 23, 4-(4-(2-(tert-butyl)-4-oxo-4,7-dihydro-5H-spiro[benzo[d]thiazole-6,4′-piperidine]-1′-carbonyl)-6-methoxypyridin-2-yl)benzamide] |
| 6.2 nM | COc1cc(C(=O)N2CCC3(CC2)CC(=O)c2nc(C(C)(C)C)sc2C3)cc2c(C)nccc12 [Example 28, 2-(tert-butyl)-1′-(5-methoxy-1-methylisoquinoline-7-carbonyl)-5H-spiro[benzo[d]thiazole-6,4′-piperidin]-4(7H)-one] |
| 9.4 nM | CNc1nc2ccc(OC)cc2cc1C(=O)N1CCC2(CC1)CC(=O)c1nc(C(C)(C)C)sc1C2 [Example 77] |
| 12.9 nM | COc1cc(C(=O)N2CCC3(CC2)CC(=O)c2nc(C(C)(C)C)sc2C3)cc2cc[nH]c12 [Example 106] |
| 7.6 nM | CC(C)(C)c1nc2c(s1)CC1(CCN(C(=O)c3cc(Cl)c4cc[nH]c4c3)CC1)CC2=O [Example 78] |
| 109 nM | COc1ccc2cc(C(=O)N3CCC4(CC3)CC(=O)c3nc(C(C)(C)C)sc3C4)cc(C)c2n1 [Example 80] |
| 5.2 nM | [2H]C([2H])([2H])C(c1nc2c(s1)CC1(CCN(C(=O)c3cc(OC)c4c(c3)c(C)nn4C)CC1)CC2=O)(C([2H])([2H])[2H])C([2H])([2H])[2H] [Example 12, 1′-(7-methoxy-1,3-dimethyl-1H-indazole-5-carbonyl)-2-(2-(methyl-d3)propan-2-yl-1,1,1,3,3,3-d6)-5H-spiro[benzo[d]thiazole-6,4′-piperidin]-4(7H)-one] |
| 10.6 nM | Cc1n[nH]c2c(C)cc(C(=O)N3CCC4(CC3)CC(=O)c3nc(C5(C)CC5)sc3C4)cc12 [Example 1, 1′-(3,7-dimethyl-2H-indazole-5-carbonyl)-2-(1-methylcyclopropyl)-5H-spiro[benzo[d]thiazole-6,4′-piperidin]-4(7H)-one] |
| 29.5 nM | Cc1cnc(C)c2cc(C(=O)N3CCC4(CC3)CC(=O)c3nc(C(C)(C)C)sc3C4)ccc12 [Example 27, 2-(tert-butyl)-1′-(1,4-dimethylisoquinoline-7-carbonyl)-5H-spiro[benzo[d]thiazole-6,4′-piperidin]-4(7H)-one] |
| 4 nM | CC(C)(C)c1nc2c(s1)CC1(CCN(C(=O)c3ccc4ccc(NC5CCC5)nc4c3)CC1)CC2=O [Example 31, 2-(tert-butyl)-1′-(2-(cyclobutylamino)quinoline-7-carbonyl)-5H-spiro[benzo[d]thiazole-6,4′-piperidin]-4(7H)-one] |
| 6.4 nM | COc1cc(C(=O)N2CCC3(CC2)CC(=O)c2nc(C(C)(C)C)sc2C3)cc2c(C)n[nH]c12 [Example 49] |
| 5.8 nM | COc1ccc(C)c2[nH]c(C(=O)N3CCC4(CC3)CC(=O)c3nc(C(C)(C)C)sc3C4)cc12 [Example 56] |
| 6.2 nM | Cc1cn(C)c2c(C)cc(C(=O)N3CCC4(CC3)CC(=O)c3nc(C(C)(C)C)sc3C4)cc12 [Example 87] |
| 15.3 nM | COc1ccnc2c(C)cc(C(=O)N3CCC4(CC3)CC(=O)c3nc(C(C)(C)C)sc3C4)cc12 [Example 41, 2-(tert-butyl)-1′-(4-methoxy-8-methylquinoline-6-carbonyl)-5H-spiro[benzo[d]thiazole-6,4′-piperidin]-4(7H)-one] |
| 189 nM | CNc1nc2ccccc2cc1C(=O)N1CCC2(CC1)CC(=O)c1nc(C(C)(C)C)sc1C2 [Example 74] |
| 2.4 nM | Cc1c[nH]c2c(C)cc(C(=O)N3CCC4(CC3)CC(=O)c3nc(C(C)(C)C)sc3C4)cc12 [Example 92] |
| 11.1 nM | COc1cc(C(=O)N2CCC3(CC2)CC(=O)c2nc(C(C)(C)C)sc2C3)cc2c1ccn2C [Example 83] |
